# Key:
# [1] = Oscillatory shear-stress sweep test, shear elastic modulus G′ of HyStem hydrogels; format: physicochemical
# Procedure: To a 2 mL centrifuge tube, 200 μL of Heprasil® solution (1% w/v solution, thiolated HA component of HyStem kit), 200 μL of Gelin-S® solution (1% w/v, thiolated gelatin component of HyStem kit), 50 μL of Extralink® solution (2% w/v, polyethylene glycol diacrylate component of HyStem kit), and 50 μL of a modular catecholamine (C1.1) or amide […] solutions (0.25%-1.5% w/v, see Rheology section for specifics) were added and mixed by softly pipetting the solution up and down carefully to avoid creating bubbles. For control experiments the modular catecholamide or amine solutions were replaced with an equivalent volume of sterile deionized water. For rheology or cell culture studies, the reaction mixture was placed into wells of an appropriate size and exposed to UV radiation (˜222 nm) for 1-5 seconds.
# A Discovery HR-2 Rheometer (TA Instruments, New Castle, Del.) with an 8 mm geometry was used to collect the rheological data. After reaction set-up, 200 μL of the reaction mixture was transferred into a 12 mm diameter×5 mm depth PDMS well. The PDMS well containing the reaction mixture was then exposed to UV radiation for 5 seconds at a distance of 1 cm. Photo-initiated polymerization and formation of a hydrogel occurred instantaneously. To ensure standard conditions across all experiments the geometry was lowered into the gels until a calibration normal force of 0.4N was achieved. Following, an oscillatory shear-stress sweep test (0.6-10.0 Pa, 1.0 Hz, 25° C.) was applied to hydrogels containing varying concentrations (0%, 1.0%, and 1.5% w/v) of modular amine compounds, C1.1 and C1.2. This experiment was repeated in triplicate for each condition. Average shear elastic modulus, G′, values were determined for each condition.
# Shear-stress sweep tests (0.6-10.0 Pa, 1.0 Hz, 25° C.) were applied to hydrogels containing varying solution concentrations (0%, 1.0%, and 1.5% WAV) of modular amine compounds, C1.1/C1.2. Reported here are the average shear elastic modulus G′ values for n=3 runs for each condition (FIGS. 3 and 4). The reported uncertainties were calculated from standard deviations between n=3 averaged G′ values of each condition. In FIG. 3 we report the following G′ values: (2.136×10^3+/−3.988×10^2) Pa for the HyStem® control, (3.166×103+/−6.772×10^2) Pa for the HyStem®+1% w/v catecholamine, and (3.648×103+/8.047×102) Pa for the HyStem®+1.5% w/v catecholamine. […] Thus it was observed that when increasing the % w/v of the catecholamine (C1.1) solution used from 0% w/v, 1% w/v, 1.5% w/v, a proportional increase in G′ was observed, i.e., 1 equivalent of C1.1=1000 Pa increase in G′ and 1.5 equivalent=1500 Pa increase in the G′ of the hydrogel matrix.
# [2] = tested on: Caco-2; assay: 3D Live/Dead assay with red vs green pixel analysis; format: cell-based; details: Caco-2, 3D, days 1, 4, 7; 1% w/v compound solution
# Procedure: (§1) 3.0×10^6 HepG2 and Caco-2 cells were harvested from the tissue culture dishes, respectively. Following, they were centrifuged into cell pellets and the supernatant was discarded. For each cell line, HepG2 and Caco2, three conditions were prepared, i.e., a positive control (HyStem®) and two experimental conditions (HyStem®+C1.1 and HyStem®+C1.2). To prepare each condition, a 3.0×10^6 cell pellet was suspended in 500 μL 1% w/v Heprasil®, 500 μL 1% w/v Gelatin-S®, 125 μL of 2% w/v Extralink®, and 125 μL of 1% w/v C1.1/C1.2 (experimental conditions) or 125 μL of sterile, deionized water (positive control). The final cell density for each condition was […]. One 50 μL sample of each hydrogel condition at each condition was aliquoted into a 96-well for each time point (1, 4, and 7 days). […] At each time point media was aspirated from the wells and were subsequently incubated for 45-60 min with 200 μL of DPBS containing […] of calcein AM and […] of ethidium homodimer. Live cells fluoresce green due to the uptake and hydrolysis of calcein AM, and the nuclei of dead cells are labelled by the red-fluorescent ethidium homodimer.
# (§2) A MATLAB (MathWorks®) script (supplemental information, S.3) was used to quantify red and green fluorescent signals generated by biochemical interactions between the ethidium homodimer and calcein AM, and cells, respectively.
# (§3) Quantification of the red (dead) and green (viable) pixels was performed using an image processing script written on MATLAB (S.3). In this case, the live cell staining corresponds with the cytoplasm of the cell while the dead stain only highlights the nuclei of the cell therefore we use the ratio of red to green pixels as a quantification to show the relative cell-viability rather than report individual Live/Dead cell quantification over time.
# [3] = tested on: HepG2; assay: as above; format: cell-based; details: HepG2, 3D, days 1, 4, 7; 1% w/v compound solution
# Procedure: as §1, §2, §3
smiles,measurement,setting,value
C#CCNCc1ccc(O)c(O)c1 [Compound C1.1],increase in G′ vs HyStem control,[1]; 1.0% w/v compound solution,~1.029×10^3+/−3.280×10^1 Pa
same,increase in G′ over gels containing 1.0% w/v C1.1,[1]; 1.5% w/v C1.1 solution,477 pa
same,increase in G′ vs HyStem control,[1]; 1.5% w/v compound solution,1.512×10^3+/−3.469×10^1 Pa
same,biocompatibility / cell viability in hydrogel (Live/Dead),[2],only a slightly depressed biocompatibility
same,biocompatibility / cell viability in hydrogel (Live/Dead),[3],only a slightly depressed biocompatibility
C#CCNC(=O)Cc1ccc(O)c(O)c1 [Compound C1.2],higher increase in G′ over gels containing 1.0% w/v C1.1 solution,[1]; 1.0% w/v C1.2 solution,788 Pa
same,increase in G′ vs HyStem control,[1]; 1.0% w/v compound solution,~1.817×10^3+/−2.457×10^1 Pa
same,increase in G′ vs HyStem control,[1]; 1.5% w/v compound solution,1.989×10^3+/−1.378×10^1 Pa
same,shear elastic modulus G′,"[1]; Hystem + 1.0% w/v compound solution, n=3",3.953×10^3+/−1.160×10^2 Pa
same,biocompatibility / cell viability in hydrogel (Live/Dead),[2],only a slightly depressed biocompatibility
same,biocompatibility / cell viability in hydrogel (Live/Dead),[3],only a slightly depressed biocompatibility

# Reference: patent publication US11286231B2, “Hydrogen-bonding compounds, compositions comprising the same, and methods of preparing and using the same” (Wake Forest University Health Sciences, priority 2016, dated 2022)
